Where two headings read alike, the source gives them in different places.
Experiments:
rice = experiment: Test C flooded paddy test; type: in vivo, Oryza sativa
Summary of the method: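 Postemergence sprays applied to plants 2 to 18 cm tall (1- to 4-leaf stage); paddy species grown to 2-leaf stage under flooding. After 12 to 14 days in greenhouse, visual rating versus untreated controls on 0–100 scale (0 no effect, 100 complete control).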

morningglory = experiment: Test A pre-/postemergence herbicide test; type: in vivo, Ipomoea spp.; details: for pest or weed control at 500 g/ha / pest or weed control at 2000 g/ha: Ipomoea, 240 h
Summary of the method: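 Greenhouse injury scoring (0–100, complete control = 100) at approximately ten days follows simultaneous pre- and postemergence application. Soil received a directed spray after seeding; seedlings of 2–10 cm at the one- to two-leaf stage were sprayed to runoff.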

[1] = test system: common (oilseed) sunflower; experiment: Test C pre-/postemergence herbicide test; type: in vivo, Helianthus annuus; details: for Plant response rating (0 = no effect, 100 = complete control), Sunflower: 62 g ai/ha; for Sunflower plant response rating: Preemergence, 500 g ai/ha, scale 0 to 100, 0 no effect, 100 complete control
Summary of the method: (§1)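 Pre/post spray; non-phytotoxic solvent + surfactant. Post-timing 1–4 leaves, 2–18 cm. Read-out: visual % control vs untreated, day 12–14, greenhouse.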

eastern black nightshade = experiment: Test C pre-/postemergence herbicide test; type: in vivo, Solanum ptycanthum; details: for Plant response rating (0 = no effect, 100 = complete control), Nightshade: 62 g ai/ha; for Nightshade plant response rating: Preemergence, 500 g ai/ha, scale 0 to 100, 0 no effect, 100 complete control
Summary of the method: as §1

bermudagrass = experiment: Test C pre-/postemergence herbicide test; type: in vivo, Cynodon dactylon
Summary of the method: as §1

[2] = 62 g ai/ha, scale 0 to 100 (0 no effect, 100 complete control)
[3] = 125 g ai/ha, scale 0 to 100 (0 no effect, 100 complete control)
[4] = Postemergence, 500 g ai/ha, 0 to 100 scale, 0 no effect, 100 complete control
[5] = Postemergence, 2000 g ai/ha, 0 to 100 scale, 0 no effect, 100 complete control
[6] = Preemergence, 500 g ai/ha, visual rating, 0 to 100 scale (0 no effect, 100 complete control)
[7] = Preemergence, 2000 g ai/ha, visual rating, 0 to 100 scale (0 no effect, 100 complete control)
[8] = 125 g ai/ha, scale 0 (no effect) to 100 (complete control), visual, 12 to 14 days, preemergence
[9] = 250 g ai/ha, scale 0 to 100 (0 no effect, 100 complete control), visual, 12 to 14 days, preemergence
[10] = Preemergence, 500 g ai/ha, scale 0 to 100, 0 no effect, 100 complete control
[11] = 125 g ai/ha, scale of 0 to 100, 0 is no effect, 100 is complete control
[12] = 500 g ai/ha, visual rating after 12 to 14 days, scale 0 to 100 (0 no effect, 100 complete control)
[13] = 250 g ai/ha, scale of 0 to 100, 0 is no effect, 100 is complete control
[14] = 31 g ai/ha, preemergence, scale 0 to 100

Compound | Rice plant response rating (rice; [2]) | Rice plant response rating (rice; [3]) | Morningglory plant response rating (morningglory; [4]) | Plant response rating, Morningglory (morningglory; [5]) | Morningglory plant response rating (morningglory; [6]) | Morningglory plant response rating (morningglory; [7]) | Plant response rating (0 = no effect, 100 = complete control), Sunflower ([1]; preemergence) | Plant response rating, Sunflower [1, 8] | Sunflower plant response rating [1] | Plant response rating (0 = no effect, 100 = complete control), Nightshade (eastern black nightshade; preemergence) | Plant response rating, Nightshade (eastern black nightshade; [8]) | Nightshade plant response rating (eastern black nightshade) | Plant response rating (0 = no effect, 100 = complete control), Bermudagrass (bermudagrass; 62 g ai/ha, preemergence) | Plant response rating, Bermudagrass (bermudagrass; [8]) | Plant response rating, Bermudagrass (bermudagrass; [9]) | Bermudagrass plant response rating (bermudagrass; [10]) | Rice plant response rating (rice; [11]) | Plant response rating, Rice (rice; [12]) | Rice plant response rating (rice; [13]) | further results
C#CCNC(=O)c1cccc(NC(=O)c2cc(C(C)(C)C)nn2CC)n1 [Compound 147] | 0 | 0 | 20 | 30 | 20 | 45 | 0 | 0 | 0 | 40 | 70 | 100 | 40 | 70 | 90 | 95 | – | – | – | Rice plant response rating (rice; 16 g ai/ha, scale 0 to 100): 0; Rice plant response rating (rice; 31 g ai/ha, scale 0 to 100): 0; Plant response rating, Bermudagrass (bermudagrass; Postemergence, 250 g ai/ha, scale 0 to 100, 0 no effect, 100 complete control): 70
CCNC(=O)c1cccc(NC(=O)c2cc(C(C)(C)C)nn2CC(F)(F)F)c1 [Compound 31] | 0 | – | – | – | – | – | 0 | – | 20 | 90 | – | 100 | 20 | – | 100 | 100 | 10 | 50 | – | Plant response rating, Rice (rice; 250 g ai/ha, visual rating after 12 to 14 days, scale 0 to 100 (0 no effect, 100 complete control)): 40; Morningglory plant response rating (morningglory; Postemergence, 250 g ai/ha, 0 to 100 scale, 0 no effect, 100 complete control): 5; Plant response rating, Morningglory (morningglory; Postemergence, 1000 g ai/ha, 0 to 100 scale, 0 no effect, 100 complete control): 20; Morningglory plant response rating (morningglory; Preemergence, 1000 g ai/ha, visual rating, 0 to 100 scale (0 no effect, 100 complete control)): 55; Morningglory plant response rating (morningglory; preemergence, 250 g ai/ha, visual injury, 0 to 100 scale (0 no effect, 100 complete control)): 0; Plant response rating, Sunflower [1, 9]: 20; Plant response rating, Nightshade (eastern black nightshade; [9]): 100; Plant response rating, Bermudagrass (bermudagrass; 125 g ai/ha, scale 0-100, preemergence): 90; Bermudagrass plant response rating (bermudagrass; Postemergence, 500 g ai/ha, scale 0 to 100): 40; Plant response rating, Bermudagrass (bermudagrass; Postemergence, 125 g ai/ha, scale 0 to 100, 0 no effect, 100 complete control): 20; Bermudagrass plant response rating (bermudagrass; Postemergence, 250 g ai/ha, scale 0 to 100): 20; Plant response rating, Bermudagrass (bermudagrass; postemergence, 62 g ai/ha, scale 0 to 100): 10
CCOC(=O)c1cccc(NC(=O)c2cc(C(C)(C)C)nn2CC)c1 [Compound 80, ethyl 3-[[[3-(1,1-dimethylethyl)-1-ethyl-1H-pyrazol-5-yl]carbonyl]-amino]benzoate] | – | – | – | – | – | – | – | – | – | 10 | – | – | 10 | – | – | – | – | – | – | plant injury at 62 g/ha (rice; Oryza sativa, 62 g ai/ha, scale 0 to 100 (0 no effect, 100 complete control), read-out: Rice plant response rating): 20%; plant injury at 125 g/ha (rice; Oryza sativa, 125 g ai/ha, scale of 0 to 100, 0 is no effect, 100 is complete control, read-out: Rice plant response rating): 40%; plant injury at 250 g/ha (rice; Oryza sativa, 250 g ai/ha, scale of 0 to 100, 0 is no effect, 100 is complete control, read-out: Rice plant response rating): 40%; plant injury at 500 g/ha (rice; Oryza sativa, 500 g ai/ha, visual rating after 12 to 14 days, scale 0 to 100 (0 no effect, 100 complete control), read-out: Plant response rating, Rice): 40%; pest or weed control at 500 g/ha (morningglory; post-emergence, Postemergence, 500 g ai/ha, 0 to 100 scale, 0 no effect, 100 complete control, read-out: Plant response rating, Morningglory): 40%; pest or weed control at 2000 g/ha (morningglory; post-emergence, Postemergence, 2000 g ai/ha, 0 to 100 scale, 0 no effect, 100 complete control, read-out: Plant response rating, Morningglory): 50%; pest or weed control at 500 g/ha (morningglory; pre-emergence, Preemergence, 500 g ai/ha, visual rating, 0 to 100 scale (0 no effect, 100 complete control), read-out: Morningglory plant response rating): 15%; pest or weed control at 2000 g/ha (morningglory; pre-emergence, Preemergence, 2000 g ai/ha, 0 to 100 scale, 0 no effect, 100 complete control, read-out: Morningglory plant response rating): 30%; pest or weed control at 31 g/ha ([1]; Helianthus annuus, pre-emergence, 31 g ai/ha, preemergence, scale 0 to 100, read-out: Plant response rating, Sunflower): 0%; pest or weed control at 125 g/ha ([1]; Helianthus annuus, pre-emergence, 125 g ai/ha, scale 0 (no effect) to 100 (complete control), visual, 12 to 14 days, read-out: Plant response rating, Sunflower): 0%; pest or weed control at 31 g/ha (eastern black nightshade; pre-emergence, 31 g ai/ha, preemergence, scale 0 to 100, read-out: Plant response rating, Nightshade): 0%; pest or weed control at 125 g/ha (eastern black nightshade; pre-emergence, 125 g ai/ha, scale 0 (no effect) to 100 (complete control), visual, 12 to 14 days, read-out: Plant response rating, Nightshade): 10%; pest or weed control at 250 g/ha (bermudagrass; Cynodon dactylon, post-emergence, 312 h, Postemergence, 250 g ai/ha, scale 0 to 100, read-out: Bermudagrass plant response rating): 100%; pest or weed control at 125 g/ha (bermudagrass; Cynodon dactylon, post-emergence, 312 h, postemergence, 125 g ai/ha, scale 0 to 100, read-out: Plant response rating, Bermudagrass): 100%; pest or weed control at 31 g/ha (bermudagrass; Cynodon dactylon, pre-emergence, 312 h, 31 g ai/ha, preemergence, scale 0 to 100, read-out: Plant response rating, Bermudagrass): 0%; pest or weed control at 125 g/ha (bermudagrass; Cynodon dactylon, pre-emergence, 312 h, 125 g ai/ha, scale 0 (no effect) to 100 (complete control), visual, 12 to 14 days, read-out: Plant response rating, Bermudagrass): 10%; pest or weed control at 250 g/ha (bermudagrass; Cynodon dactylon, pre-emergence, 312 h, 250 g ai/ha, scale 0 to 100 (0 no effect, 100 complete control), visual, 12 to 14 days, read-out: Plant response rating, Bermudagrass): 10%
CCOC(=O)c1cc(NC(=O)c2cc(C(C)(C)C)nn2CC)ccc1OCC [Compound 95] | 10 | – | 10 | 15 | 30 | – | 0 | 0 | – | 95 | 95 | – | 70 | 100 | 100 | – | 10 | 65 | 55 | Morningglory plant response rating (morningglory; Preemergence, 2000 g ai/ha, 0 to 100 scale, 0 no effect, 100 complete control): 55; Plant response rating, Sunflower [1, 14]: 0; Plant response rating, Nightshade (eastern black nightshade; [14]): 90; Plant response rating, Bermudagrass (bermudagrass; [14]): 10
CC(=O)c1cccc(NC(=O)c2cc(C(C)(C)C)nn2CCF)c1 [Compound 128] | 25 | 40 | 10 | 15 | 45 | 85 | – | 50 | – | 90 | 90 | – | 100 | 100 | – | – | – | 70 | 70 | Plant response rating, Bermudagrass (bermudagrass; 16 g ai/ha, scale 0 to 100, 0 no effect, 100 complete control, last section of Table C (species set of preemergence test)): 30; Plant response rating, Bermudagrass (bermudagrass; 31 g ai/ha, scale 0 to 100, 0 no effect, 100 complete control, last section of Table C (species set of preemergence test)): 90

Reference: US20060069132A1, “Azolecarboxamide herbicides” (priority 2004, published 2006)
